Results reported in patent US20160237044A1, “SUBSTITUTED PHENYLALANINE DERIVATIVES” (BAYER PHARMA AKTIENGESELLSCHAFT, priority 2013, published 2016).
Structures can show the parent of a compound that is named as a salt. Where two headings read alike, the source gives them in different places.

Key:
[1] = tested on: plasma; assay: Determination of anticoagulatory activity: activated partial thromboplastin time (aPTT) in plasma; format: biochemical, human; conditions: concentration of test substance which brings about a 1.5-fold extension of the aPTT, C.K. Prest kit, 37° C.
Experimental: a.4) Determination of Anticoagulatory Activity
The anticoagulatory activity of the test substances is determined in vitro in human and animal plasma (for example mouse, rat, rabbit, pig and dog plasma). To this end, blood is drawn off in a mixing ratio of sodium citrate/blood of 1:9 using a 0.11 molar sodium citrate solution as receiver. Immediately after the blood has been drawn off, it is mixed thoroughly and centrifuged at about 4000 g for 15 minutes. The supernatant is pipetted off.
The activated partial thromboplastin time (aPTT) is determined in the presence of varying concentrations of test substance or the corresponding solvent using a commercial test kit (C.K. Prest from Diagnostica Stago). The test compounds are incubated with the plasma and the PTT reagent (cephalin, kaolin) at 37° C. for 3 minutes. Coagulation is then started by addition of a 25 mM aqueous calcium chloride solution, and the time when coagulation occurs is determined. The concentration of test substance which brings about a 1.5-fold extension of the aPTT is determined.

[2] = molecular target: T1, human factor XIa (Homo sapiens, UniProt P03951); assay: Measurement of FXIa inhibition (fluorogenic peptide substrate Boc-Glu(OBzl)-Ala-Arg-AMC); format: biochemical
T1 construct: purchased Kordia
T1 sequence (P03951 388-625 limits assumed): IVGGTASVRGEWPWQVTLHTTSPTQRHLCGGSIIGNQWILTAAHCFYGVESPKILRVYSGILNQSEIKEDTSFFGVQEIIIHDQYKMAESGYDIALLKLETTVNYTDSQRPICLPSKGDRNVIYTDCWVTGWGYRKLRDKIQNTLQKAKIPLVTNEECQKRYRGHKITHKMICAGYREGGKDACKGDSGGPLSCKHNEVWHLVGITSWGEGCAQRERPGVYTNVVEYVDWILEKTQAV
T1 sequence (P03951 19-387 partner limits assumed): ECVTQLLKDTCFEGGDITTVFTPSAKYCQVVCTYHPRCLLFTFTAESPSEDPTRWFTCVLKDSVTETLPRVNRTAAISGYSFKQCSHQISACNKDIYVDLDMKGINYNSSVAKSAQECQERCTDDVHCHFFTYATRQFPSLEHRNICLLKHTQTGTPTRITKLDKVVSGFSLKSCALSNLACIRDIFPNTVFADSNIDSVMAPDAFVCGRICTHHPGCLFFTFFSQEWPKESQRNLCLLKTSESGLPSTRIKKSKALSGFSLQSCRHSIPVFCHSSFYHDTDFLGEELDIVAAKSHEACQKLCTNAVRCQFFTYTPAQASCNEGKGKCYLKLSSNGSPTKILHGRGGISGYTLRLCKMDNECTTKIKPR
Experimental: a.1) Measurement of FXIa Inhibition
The factor XIa inhibition of the substances according to the invention is determined using a biochemical test system which utilizes the reaction of a peptidic factor XIa substrate to determine the enzymatic activity of human factor XIa. Here, factor XIa cleaves from the peptic factor XIa substrate the C-terminal aminomethylcoumarin (AMC), the fluorescence of which is measured. The determinations are carried out in microtitre plates.
In each case 1 μl of the diluted substance solutions is placed into the wells of white microtitre plates from Greiner (384 wells). […] After 15 min of incubation, the enzyme reaction is started by addition of 20 μl of the factor XIa substrate Boc-Glu(OBzl)-Ala-Arg-AMC dissolved in assay buffer (10 μM in assay buffer) from Bachem, the mixture is incubated at room temperature (22° C.) for 30 min and fluorescence is then measured (excitation: 360 nm, emission: 460 nm). The measured emissions of the test batches with test substance are compared to those of control batches without test substance (only dimethyl sulphoxide instead of test substance in dimethyl sulphoxide), and IC50 values are calculated from the concentration/activity relationships.

[3] = factor XIa from Kordia, 15 min preincubation, 30 min at 22° C., fluorescence, read-out: IC50

Cc1cc(S(=O)(=O)NC2CCNCC2)ccc1-c1ccc(C[C@H](NC(=O)[C@H]2CC[C@H](CN)CC2)C(=O)Nc2ccc(-c3nnn[nH]3)cc2)cc1 [Example 1, trans-4-(Aminomethyl)-N-[(2S)-3-[2′-methyl-4′-(piperidin-4-ylsulphamoyl)biphenyl-4-yl]-1-oxo-1-{[4-(1H-tetrazol-5-yl)phenyl]amino}propan-2-yl]cyclohexanecarboxamide hydrochloride]
Concentration for 1.5-fold aPTT extension [1]: 0.1 µmol/L | IC50 [2, 3]: 1.1 nM

NC[C@H]1CC[C@H](C(=O)N[C@@H](Cc2ccc(-c3ccc(N4CCNCC4)cc3)cc2)C(=O)Nc2ccc(-c3nn[nH]n3)cc2)CC1 [Example 2, trans-4-(Aminomethyl)-N-[(2S)-1-oxo-3-[4′-(piperazin-1-yl)biphenyl-4-yl]-1-{[4-(2H-tetrazol-5-yl)phenyl]amino}propan-2-yl]cyclohexanecarboxamide hydrochloride]
IC50 [2, 3]: 4.3 nM

COCCOc1ccc(-c2ccc(C[C@H](NC(=O)[C@H]3CC[C@H](CN)CC3)C(=O)Nc3ccc(-c4nn[nH]n4)cc3)cc2)cc1 [Example 3, trans-4-(Aminomethyl)-N-[(2S)-3-[4′-(2-methoxyethoxy)biphenyl-4-yl]-1-oxo-1-{[4-(2H-tetrazol-5-yl)phenyl]amino}propan-2-yl]cyclohexanecarboxamide hydrochloride]
IC50 [2, 3]: 8.1 nM

CN1CCN(c2ccc(-c3ccc(C[C@H](NC(=O)[C@H]4CC[C@H](CN)CC4)C(=O)Nc4ccc(-c5nn[nH]n5)cc4)cc3)cc2)CC1 [Example 4, trans-4-(Aminomethyl)-N-[(2S)-3-[4′-(4-methylpiperazin-1-yl)biphenyl-4-yl]-1-oxo-1-{[4-(2H-tetrazol-5-yl)phenyl]amino}propan-2-yl]cyclohexanecarboxamide hydrochloride]
IC50 [2, 3]: 18 nM

NC[C@H]1CC[C@H](C(=O)N[C@@H](Cc2ccc(-c3ccc(N4CCOCC4)cc3)cc2)C(=O)Nc2ccc(-c3nn[nH]n3)cc2)CC1 [Example 5, trans-4-(Aminomethyl)-N-[(2S)-3-[4′-(morpholin-4-yl)biphenyl-4-yl]-1-oxo-1-{[4-(2H-tetrazol-5-yl)phenyl]amino}propan-2-yl]cyclohexanecarboxamide hydrochloride]
IC50 [2]: 5.7 nM

NC[C@H]1CC[C@H](C(=O)N[C@@H](Cc2ccc(-c3ccc(N4CCNCC4)cc3)cc2)C(=O)Nc2ccc(-c3noc(=O)[nH]3)cc2)CC1 [Example 6, trans-4-(Aminomethyl)-N-{(2S)-1-oxo-1-{[4-(5-oxo-4,5-dihydro-1,2,4-oxadiazol-3-yl)phenyl]amino}-3-[4′-(piperazin-1-yl)biphenyl-4-yl]propan-2-yl}cyclohexanecarboxamide hydrochloride]
IC50 [2, 3]: 24 nM

COC(=O)c1ccc(-c2ccc(C[C@H](NC(=O)[C@H]3CC[C@H](CN)CC3)C(=O)Nc3ccc(-c4nn[nH]n4)cc3)cc2)cc1 [Example 7, Methyl 4′-[(2S)-2-({[trans-4-(aminomethyl)cyclohexyl]carbonyl}amino)-3-oxo-3-{[4-(2H-tetrazol-5-yl)phenyl]amino}propyl]biphenyl-4-carboxylic acid hydrochloride]
IC50 [2, 3]: 3.6 nM

NC[C@H]1CC[C@H](C(=O)N[C@@H](Cc2ccc(-c3ccc(S(=O)(=O)NC4CCNCC4)cc3C(F)(F)F)cc2)C(=O)Nc2ccc(-c3nn[nH]n3)cc2)CC1 [Example 8, trans-4-(Aminomethyl)-N-[(2S)-1-oxo-3-[4′-(piperidin-4-ylsulphamoyl)-2′-(trifluoromethyl)biphenyl-4-yl]-1-{[4-(2H-tetrazol-5-yl)phenyl]amino}propan-2-yl]cyclohexanecarboxamide hydrochloride]
Concentration for 1.5-fold aPTT extension [1]: 0.08 µmol/L | IC50 [2, 3]: 1 nM

Cc1cc(NC(=O)CNC(=O)CNC(=O)CN)ccc1-c1ccc(C[C@H](NC(=O)[C@H]2CC[C@H](CN)CC2)C(=O)Nc2ccc(-c3nn[nH]n3)cc2)cc1 [Example 9, Glycylglycyl-N-{4′-[(2S)-2-({[trans-4-(aminomethyl)cyclohexyl]carbonyl}amino)-3-oxo-3-{[4-(2H-tetrazol-5-yl)phenyl]amino}propyl]-2-methylbiphenyl-4-yl}glycinamide hydrochloride]
IC50 [2, 3]: 8.4 nM

Cc1cc(S(=O)(=O)NC2CCNC(C)C2)ccc1-c1ccc(C[C@H](NC(=O)[C@H]2CC[C@H](CN)CC2)C(=O)Nc2ccc(-c3nn[nH]n3)cc2)cc1 (stereo partly drawn) [Example 10, trans-4-(Aminomethyl)-N-[(2S)-3-(2′-methyl-4′-{[(2-methylpiperidin-4-yl]sulphamoyl}biphenyl-4-yl)-1-oxo-1-{[4-(2H-tetrazol-5-yl)phenyl]amino}propan-2-yl]cyclohexanecarboxamide hydrochloride]
Concentration for 1.5-fold aPTT extension [1]: 0.1 µmol/L | IC50 [2, 3]: 1.1 nM

COC(=O)c1ccc(-c2ccc(C[C@H](NC(=O)[C@H]3CC[C@H](CN)CC3)C(=O)Nc3ccc(-c4nn[nH]n4)cc3)cc2)c(Cl)c1.Cl [Example 11, Methyl 4′-[(2S)-2-({[trans-4-(aminomethyl)cyclohexyl]carbonyl}amino)-3-oxo-3-{[4-(2H-tetrazol-5-yl)phenyl]amino}propyl]-2-chlorobiphenyl-4-carboxylate hydrochloride]
Concentration for 1.5-fold aPTT extension [1]: 0.49 µmol/L | IC50 [2, 3]: 1.9 nM

Cc1cc(S(=O)(=O)N(C)C)ccc1-c1ccc(C[C@H](NC(=O)[C@H]2CC[C@H](CN)CC2)C(=O)Nc2ccc3c(=O)[nH][nH]c3c2)cc1 [Example 13, trans-4-(Aminomethyl)-N-{(2S)-3-[4′-(dimethylsulphamoyl)-2′-methylbiphenyl-4-yl]-1-oxo-1-[(3-oxo-2,3-dihydro-1H-indazol-6-yl)amino]propan-2-yl}cyclohexanecarboxamide hydrochloride]
Concentration for 1.5-fold aPTT extension [1]: 0.07 µmol/L | IC50 [2, 3]: 3.1 nM

Cc1cc(S(=O)(=O)NC(C)C)ccc1-c1ccc(C[C@H](NC(=O)[C@H]2CC[C@H](CN)CC2)C(=O)Nc2ccc3c(=O)[nH][nH]c3c2)cc1 [Example 14, trans-4-(Aminomethyl)-N-{(2S)-3-[4′-(isopropylsulphamoyl)-2′-methylbiphenyl-4-yl]-1-oxo-1-[(3-oxo-2,3-dihydro-1H-indazol-6-yl)amino]propan-2-yl}cyclohexanecarboxamide hydrochloride]
IC50 [2, 3]: 3.2 nM

Cc1cc(S(=O)(=O)N[C@@H]2CCNC2)ccc1-c1ccc(C[C@H](NC(=O)[C@H]2CC[C@H](CN)CC2)C(=O)Nc2ccc(-c3nn[nH]n3)cc2)cc1 [Example 16, trans-4-(Aminomethyl)-N-[(2S)-3-{2′-methyl-4′-[(3R)-pyrrolidin-3-ylsulphamoyl]biphenyl-4-yl}-1-oxo-1-{[4-(2H-tetrazol-5-yl)phenyl]amino}propan-2-yl]cyclohexanecarboxamide hydrochloride]
Concentration for 1.5-fold aPTT extension [1]: 0.11 µmol/L | IC50 [2, 3]: 1.3 nM

CCN(CC)S(=O)(=O)c1ccc(-c2ccc(C[C@H](NC(=O)[C@H]3CC[C@H](CN)CC3)C(=O)Nc3ccc4c(=O)[nH][nH]c4c3)cc2)c(C)c1 [Example 17, trans-4-(Aminomethyl)-N-{(2S)-3-[4′-(diethylsulphamoyl)-2′-methylbiphenyl-4-yl]-1-oxo-1-[(3-oxo-2,3-dihydro-1H-indazol-6-yl)amino]propan-2-yl}cyclohexanecarboxamide hydrochloride]
Concentration for 1.5-fold aPTT extension [1]: 0.13 µmol/L | IC50 [2, 3]: 3.5 nM
